Measurements published in article PMC7835950 (Frontiers in Chemistry, 2021).
Like-named read-outs stand apart in the source and are kept apart here.

Key:
[1] = test system: other enzymes transforming organic acids or structurally related compounds; parameters: method as in Artiukhov et al., 2020; conditions: ref Artiukhov et al., 2020; cited from earlier work
OGDH = target: T1, OGDH (Rattus norvegicus, UniProt Q5XI78); assay: OGDH reaction (OG saturation) catalyzed by the enzyme preparation from rat heart; assay type: biochemical; parameters: the tissue fractions with the complexes enriched to a degree allowing for a robust detection of the enzymatic activities, have been used; from tissue; host or cells: rat heart
T1 sequence (Q5XI78 41-1023): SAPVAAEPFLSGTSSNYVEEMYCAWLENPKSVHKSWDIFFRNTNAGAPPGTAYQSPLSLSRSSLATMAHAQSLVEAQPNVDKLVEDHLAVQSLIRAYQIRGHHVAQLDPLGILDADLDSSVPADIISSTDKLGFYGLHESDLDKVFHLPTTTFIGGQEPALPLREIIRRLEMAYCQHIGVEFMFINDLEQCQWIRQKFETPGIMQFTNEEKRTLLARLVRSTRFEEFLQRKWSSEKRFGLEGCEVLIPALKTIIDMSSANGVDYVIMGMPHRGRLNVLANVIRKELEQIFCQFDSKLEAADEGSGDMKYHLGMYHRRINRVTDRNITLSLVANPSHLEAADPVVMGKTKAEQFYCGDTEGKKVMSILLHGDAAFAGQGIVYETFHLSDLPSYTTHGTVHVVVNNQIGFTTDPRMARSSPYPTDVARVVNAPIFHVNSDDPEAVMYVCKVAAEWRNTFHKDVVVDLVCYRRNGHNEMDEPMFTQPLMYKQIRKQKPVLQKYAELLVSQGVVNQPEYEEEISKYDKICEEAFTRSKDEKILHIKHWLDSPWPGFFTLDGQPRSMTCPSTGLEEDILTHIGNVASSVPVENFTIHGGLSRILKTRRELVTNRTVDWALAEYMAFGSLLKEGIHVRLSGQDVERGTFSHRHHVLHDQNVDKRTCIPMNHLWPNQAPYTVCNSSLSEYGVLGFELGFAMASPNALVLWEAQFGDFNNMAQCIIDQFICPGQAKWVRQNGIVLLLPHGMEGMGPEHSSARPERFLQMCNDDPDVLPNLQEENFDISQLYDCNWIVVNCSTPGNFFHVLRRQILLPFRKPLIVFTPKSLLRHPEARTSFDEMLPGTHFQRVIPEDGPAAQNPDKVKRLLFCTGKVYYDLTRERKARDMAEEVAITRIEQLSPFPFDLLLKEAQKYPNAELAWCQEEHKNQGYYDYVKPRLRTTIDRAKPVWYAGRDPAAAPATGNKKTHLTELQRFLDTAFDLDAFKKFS
T1 sequence (Q01205 69-454 partner): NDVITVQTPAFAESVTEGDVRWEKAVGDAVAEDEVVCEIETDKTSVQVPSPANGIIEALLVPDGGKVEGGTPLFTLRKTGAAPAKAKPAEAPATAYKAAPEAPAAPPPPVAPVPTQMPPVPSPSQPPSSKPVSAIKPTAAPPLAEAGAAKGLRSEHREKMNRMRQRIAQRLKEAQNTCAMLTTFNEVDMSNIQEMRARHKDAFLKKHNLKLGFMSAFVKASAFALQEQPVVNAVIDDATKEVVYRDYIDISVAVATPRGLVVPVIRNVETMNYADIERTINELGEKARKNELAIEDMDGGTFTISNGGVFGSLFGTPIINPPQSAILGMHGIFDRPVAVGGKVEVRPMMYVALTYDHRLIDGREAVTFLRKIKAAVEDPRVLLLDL
T1 sequence (Q6P6R2 36-509 partner): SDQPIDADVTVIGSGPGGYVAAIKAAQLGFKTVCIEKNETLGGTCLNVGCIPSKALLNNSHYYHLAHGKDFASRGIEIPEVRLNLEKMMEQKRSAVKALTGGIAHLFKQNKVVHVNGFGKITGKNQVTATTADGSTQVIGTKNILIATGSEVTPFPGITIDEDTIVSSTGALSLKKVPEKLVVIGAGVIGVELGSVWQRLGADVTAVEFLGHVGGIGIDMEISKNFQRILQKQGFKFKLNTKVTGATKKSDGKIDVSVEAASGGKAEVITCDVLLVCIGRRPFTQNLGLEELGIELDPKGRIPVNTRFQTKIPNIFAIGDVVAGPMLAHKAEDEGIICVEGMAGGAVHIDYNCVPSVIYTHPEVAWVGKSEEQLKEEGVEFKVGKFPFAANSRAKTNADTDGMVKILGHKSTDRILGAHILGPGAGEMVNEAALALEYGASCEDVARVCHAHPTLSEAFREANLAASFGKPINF
Method: Reactions were started by addition of the enzyme preparations to the assay media. The amount of enzyme preparations (0.074 mg protein for the preparation from liver and 0.023 mg protein for the preparation from heart) were chosen to induce the lowest reliably measured reaction rate (ΔA340 = 0.001/min) at 0.01 mM OA without the phosphonates.
Reaction rates were calculated from linear parts of the product accumulation curves (up to 10 min, dependent on the reaction rate), excluding the initial region, where mixing the reagents and solubilization of the preparation affected the optical density.
The former equation describes one type of the active sites. […] The assumption was based on the presence of the two enzymes, OGDH and OADH, in the employed preparations.
The Km and Amax values obtained in independent experiments using the non-linear and linear regression analyses of the experimental data, were averaged and presented as Mean ± Standard Error of Mean.
The values of Ki were determined as the ratio of the corresponding Intercepts to the Slopes. In the two-site model, the Ki(1) and Ki(2) were calculated separately from the linear approximations of Km,1eff/Amax,1eff vs. [I] and Km,2eff/Amax,2eff vs. [I] dependences, respectively. […] The Ki values obtained from the non-linear and linear regression analyses of the experimental data were averaged and presented as Mean ± Standard Error of Mean.

recombinant human OADH = test system: recombinant human OADH; parameters: method as in Nemeria et al., 2017, 2018; conditions: ref Nemeria et al., 2017, 2018, cited from earlier work
recombinant OGDH complex = conditions: cited from earlier work
[2] = OGDH reaction, heart, Eadie-Hofstee, read-out: Ki, EH
[3] = OGDH reaction, heart, Lineweaver-Burk, read-out: Ki, LB
[4] = OGDH reaction, heart, Michaelis-Menten approximation, read-out: Ki, MM
[5] = OGDH reaction, heart, average of MM, LB, EH, read-out: Ki, Average
[6] = [I] 10 µM, OGDH reaction, heart
[7] = [I] 50 µM, OGDH reaction, heart
[8] = [I] 200 µM, OGDH reaction, heart
[9] = [I] 1000 µM, OGDH reaction, heart

**Q.** With O=C(O)CCCCC(=O)P(=O)(O)O [AP, adipoyl phosphonate] as the compound, how does the “interaction with other enzymes” value [1] read?
**A.** Its value is “no significant interaction”.

**Q.** What about the Ki (OGDH; [2]) of the same compound?
**A.** The Ki was 1760 ± 77 µM.

**Q.** What about the Ki (OGDH; [3]) of the same compound?
**A.** Its Ki is 2140 ± 517 µM.

**Q.** What about the Ki (OGDH; [4]) of the same compound?
**A.** Its Ki is 2490 ± 341 µM.

**Q.** And the Ki (OGDH; [5])?
**A.** Its Ki is 2130 ± 211 µM.

**Q.** And the Amax (OGDH; [I] 0.5 µM, OGDH reaction, heart)?
**A.** The Amax was 0.70 ± 0.02 µmol/min per mg of protein.

**Q.** And the Amax (OGDH; [I] 2 µM, OGDH reaction, heart)?
**A.** The Amax was 0.72 ± 0.01 µmol/min per mg of protein.

**Q.** What about the Amax (OGDH; [6]) of the same compound?
**A.** The Amax was 0.62 ± 0.01 µmol/min per mg of protein.

**Q.** And the Amax (OGDH; [7])?
**A.** The Amax was 0.67 ± 0.01 µmol/min per mg of protein.

**Q.** What about the Amax (OGDH; [8]) of the same compound?
**A.** Its Amax is 0.70 ± 0.02 µmol/min per mg of protein.

**Q.** What about the Amax (OGDH; [9]) of the same compound?
**A.** Its Amax is 0.63 ± 0.03 µmol/min per mg of protein.

**Q.** And the Amax (OGDH; [I] 5000 µM, OGDH reaction, heart)?
**A.** Its Amax is 0.61 ± 0.04 µmol/min per mg of protein.

**Q.** Which Ki (OGDH; [2]) does the source give for O=C(O)CCCC(=O)P(=O)(O)O [GP, glutaryl phosphonate] here?
**A.** The Ki was 49 ± 8 µM.

**Q.** And the Ki (OGDH; [3])?
**A.** The Ki was 12 ± 1 µM.

**Q.** What about the Ki (OGDH; [4]) of the same compound?
**A.** Its Ki is 39 ± 2 µM.

**Q.** And the Ki (OGDH; [5])?
**A.** The Ki was 33 ± 11 µM.

**Q.** What about the Amax (OGDH; [I] 2 µM, OGDH reaction, heart) of the same compound?
**A.** Its Amax is 0.67 ± 0.02 µmol/min per mg of protein.

**Q.** And the Amax (OGDH; [6])?
**A.** Its Amax is 0.76 ± 0.02 µmol/min per mg of protein.

**Q.** What about the Amax (OGDH; [7]) of the same compound?
**A.** Its Amax is 0.79 ± 0.03 µmol/min per mg of protein.

**Q.** And the Amax (OGDH; [8])?
**A.** Its Amax is 0.86 ± 0.05 µmol/min per mg of protein.

**Q.** Which results are given for O=C(O)CCCC(=O)C(=O)O [OA, 2-oxoadipate]?
**A.** kcat OA of recombinant OADH complex (recombinant human OADH): 6.0 s⁻¹; Km (recombinant human OADH; read-out: Km OA of recombinant human OADH): 15 µM; Km (recombinant OGDH complex; OA as alternative substrate, ref Nemeria et al., 2017): 520 µM; kcat OA of recombinant OGDH complex (recombinant OGDH complex; ref Nemeria et al., 2017, 2018): 2.7 s⁻¹

**Q.** Which results are given for O=C(O)CCC(=O)P(=O)(O)O [SP, succinyl phosphonate]?
**A.** interaction with other enzymes [1]: no significant interaction; Ki (OGDH; Ki, Average, OGDH reaction, heart, average of MM, LB, EH): 16 ± 2 µM; Ki (OGDH; Ki, LB, OGDH reaction, heart, Lineweaver-Burk): 13 ± 2 µM; Ki (OGDH; Ki, MM, OGDH reaction, heart, Michaelis-Menten approximation): 20 ± 1 µM; Ki (OGDH; [2]): 15 ± 1 µM; Amax (OGDH; [6]): 0.72 ± 0.01 µmol/min per mg of protein; Amax (OGDH; [7]): 0.71 ± 0.02 µmol/min per mg of protein; Amax (OGDH; [8]): 0.45 ± 0.11 µmol/min per mg of protein; Amax (OGDH; [9]): 0.54 ± 0.07 µmol/min per mg of protein; Ki (OGDH; rounded from Table 2 (heart and liver preparations), read-out: Ki as OGDH inhibitor (order of magnitude)): 10 µM
